Assay results: US12358919B2, “Antibacterial compounds” (Universita' degli Studi di Siena, priority 2019, dated 2025)
Like-named read-outs stand apart in the source and are kept apart here.

Experiments:
Type in all cases: cell-based
[1] = system: Staphylococcus aureus ATCC 25923; assay: MIC, broth microdilution (direct antibacterial activity); details: ATCC25923, S. aureus ATCC 25923, compound alone, 18-24 h, read-out: MIC
Method: (§1) Growth inhibition or killing of bacteria was investigated using conventional methods widely described in the scientific literature. Parameters such as the Minimum Inhibitory Concentration (MIC) were determined as described in Clinical Laboratory Standard Institute (CLSI) document M07 “Methods for Dilution Antimicrobial Susceptibility Tests for Bacteria That Grow Aerobically, 11th Edition” (2018). Synergistic activity of the compounds described in the present specification were determined by measuring the variation of the MIC's compound in the absence and presence of a sub-inhibitory concentration of a suitable antibacterial agent, such as polymyxin E1. Furthermore, the Fractional Inhibitory Concentrations (FICs) were measured using a chequerboard analysis to determine the average FIC index (FICI), whose value is known to characterize the interaction between two compounds and/or drugs (≤0.5, synergistic interaction; >0.5 and <2, no interaction, additive effect; ≥2, antagonistic interaction). Furthermore, the selectivity of the compounds was investigated by measuring their cytotoxic effect on mammalian cell lines (e.g. HeLa cells).
(§2) The MIC values were determined using the broth microdilution method as described in document M07 using Mueller-Hinton broth as culture medium and an initial bacterial inoculum size of 5×10^5 CFU/mL, with a final volume of 100 μL per well in a 96-well microplate. Bacterial strains were Bacillus subtilis ATCC 6633, Enterococcus faecalis ATCC 29212, Streptococcus pyogenes ATCC 12344 and Staphylococcus aureus ATCC 25923. The tested compound concentration ranged from 512 to 0.25 mg/L. Plates were incubated for 18-24 hours at 35±2° C. prior to results analysis.

[2] = system: Bacillus subtilis ATCC 6633; assay: as above; details: ATCC6633, B. subtilis ATCC 6633, compound alone, 18-24 h, read-out: MIC
Method: as §1, §2

[3] = system: Streptococcus pyogenes ATCC 12344; assay: as above; details: ATCC12344, S. pyogenes ATCC 12344, compound alone, 18-24 h, read-out: MIC
Method: as §1, §2

[4] = system: Enterococcus faecalis ATCC 29212; assay: as above; details: ATCC29212, E. faecalis ATCC 29212, compound alone, 18-24 h, read-out: MIC
Method: as §1, §2

Escherichia coli CCUG^T = assay: microbe, parasite or virus in culture; details: for Potentiation fold: ratio MICcompound/MICcompound+polymyxin E; for MIC in presence of colistin: with 0.25xMIC polymyxin E1 (0.12 mg/L); for MIC: Escherichia coli
Method: as §1
(§3) Several methods were used to investigate the synergistic activity of the compounds, including (a) the determination of the MIC in the presence of a sub-inhibitory concentration of a suitable antibacterial agent, (b) the determination of the average FICI using a chequerboard analysis and (c) the time-kill curve analysis of a suitable agent (at a sub-inhibitory concentration) in the absence and presence of the pyrazolo[4,3-b]pyridin-6-carboxamide compound at a fixed concentration of 2 or 8 mg/L.
(§4) The MIC of the compound was determined alone and in the presence of a fixed and sub-inhibitory concentration of a suitable antibacterial agent of the polymyxin class, such as polymyxin E1 (colistin). The potentiation fold was computed as the ratio MICcompound/MICcompound+polymyxin E. Tested organisms included Escherichia coli CCUG^TKlebsiella pneumoniae ATCC 13833 and Acinetobacter baumannii ATCC 17978, which show a colistin MIC of 0.5, 0.5 and 1 mg/L, respectively.

[5] = system: Acinetobacter baumannii ATCC 17978; assay: microbe, parasite or virus in culture; details: for Potentiation fold: ratio MICcompound/MICcompound+polymyxin E; for MIC in presence of colistin: with 0.25xMIC polymyxin E1 (0.25 mg/L); for MIC: Acinetobacter baumannii, ATCC17978
Method: as §1, §3, §4

[6] = system: Klebsiella pneumoniae ATCC 13833; assay: microbe, parasite or virus in culture; details: for Potentiation fold: ratio MICcompound/MICcompound+polymyxin E; for MIC in presence of colistin: with 0.25xMIC polymyxin E1 (0.12 mg/L); for MIC: Klebsiella pneumoniae, ATCC13833
Method: as §1, §3, §4

[7] = E. coli CCUG^T, compound alone, read-out: MIC
[8] = A. baumannii ATCC 17978, compound alone, read-out: MIC
[9] = K. pneumoniae ATCC 13833, compound alone, read-out: MIC

| SMILES | MIC [1] | MIC [2] | MIC [3] | MIC [4] | Potentiation fold (Escherichia coli CCUG^T; E. coli CCUG^T) | MIC in presence of colistin (Escherichia coli CCUG^T; E. coli CCUG^T) | MIC (Escherichia coli CCUG^T; [7]) | Potentiation fold ([5]; A. baumannii ATCC 17978) | MIC in presence of colistin ([5]; A. baumannii ATCC 17978) | MIC [5, 8] | Potentiation fold ([6]; K. pneumoniae ATCC 13833) | MIC in presence of colistin ([6]; K. pneumoniae ATCC 13833) | MIC [6, 9] | MIC (Escherichia coli CCUG^T) | MIC [5] | MIC [6] |
| --- | --- | --- | --- | --- | --- | --- | --- | --- | --- | --- | --- | --- | --- | --- | --- | --- |
| CC(C)n1c(=O)c(C(=O)NC2CCCCCCC2)c(O)c2nn(C)cc21 [Iz, N-Cyclooctyl-4,5-dihydro-7-hydroxy-2-methyl-5-oxo-4-(2-propyl)-2H-pyrazolo[4,3-b]pyridin-6-carboxamide] | 32 µg/mL | 32 µg/mL | 16 µg/mL | 64 µg/mL | ≥64 | 8 µg/mL | > 512 µg/mL | ≥64 | 8 µg/mL | > 512 µg/mL | ≥32 | 16 µg/mL | > 512 µg/mL |  |  |  |
| CCCCn1c(=O)c(C(=O)NCc2ccc(F)cc2)c(O)c2nn(C)cc21 [Iac, 4-(1-Butyl)-4,5-dihydro-N-[(4-fluorophenyl)methyl]-7-hydroxy-2-methyl-5-oxo-2H-pyrazolo[4,3-b]pyridin-6-carboxamide] | 128 µg/mL | 64 µg/mL | 32 µg/mL | 64 µg/mL |  |  |  |  |  |  |  |  |  |  |  |  |
| CC(C)n1c(=O)c(C(=O)NC(c2ccccc2)c2ccccc2)c(O)c2nn(C)cc21 [Iab, 4,5-Dihydro-N-(diphenylmethyl)-7-hydroxy-2-methyl-5-oxo-4-(2-propyl)-2H-pyrazolo[4,3-b]pyridin-6-carboxamide] | 32 µg/mL | 16 µg/mL | 32 µg/mL | 32 µg/mL | ≥32 | 16 µg/mL | > 512 µg/mL | ≥32 | 16 µg/mL | > 512 µg/mL | ≥32 | 16 µg/mL | > 512 µg/mL |  |  |  |
| CCCn1c(=O)c(C(=O)NC23CC4CC(CC(C4)C2)C3)c(O)c2nn(CCOC(C)=O)cc21 [Ir, 2-(2-Acetoxyethyl)-N-(adamantan-1-yl)-4,5-dihydro-7-hydroxy-5-oxo-4-(1-propyl)-2H-pyrazolo[4,3-b]pyridin-6-carboxamide] |  |  |  |  | ≥8 | 64 µg/mL |  | ≥16 | 32 µg/mL |  | ≥8 | 64 µg/mL |  | > 512 µg/mL | > 512 µg/mL | > 512 µg/mL |
| CCCCCn1c(=O)c(C(=O)NC23CC4CC(CC(O)(C4)C2)C3)c(O)c2nn(CCO)cc21 [Io, 4,5-Dihydro-7-hydroxy-N-(1-hydroxyadamantan-3-yl)-2-(2-hydroxyethyl)-5-oxo-4-(1-pentyl)-2H-pyrazolo[4,3-b]pyridin-6-carboxamide] |  |  |  |  |  |  |  | ≥128 | 4 µg/mL |  | ≥64 | 8 µg/mL |  | > 512 µg/mL | > 512 µg/mL | > 512 µg/mL |
| CCCCn1c(=O)c(C(=O)NC(C)(C)C)c(O)c2nn(C)cc21 [Iaf, 4-(1-Butyl)-4,5-dihydro-N-(1,1-dimethylethyl)-7-hydroxy-2-methyl-5-oxo-2H-pyrazolo[4,3-b]pyridin-6-carboxamide] | 64 µg/mL | 128 µg/mL | 64 µg/mL | 512 µg/mL | ≥16 | 32 µg/mL | > 512 µg/mL | ≥8 | 64 µg/mL | > 512 µg/mL | ≥16 | 32 µg/mL | > 512 µg/mL |  |  |  |
| CCCCn1c(=O)c(C(=O)NC(c2ccccc2)c2ccccc2)c(O)c2nn(C)cc21 [Iu, 4-(1-Butyl)-4,5-dihydro-N-(diphenylmethyl)-7-hydroxy-2-methyl-5-oxo-2H-pyrazolo[4,3-b]pyridin-6-carboxamide] |  |  |  |  | ≥8 | 64 µg/mL | > 512 µg/mL | ≥16 | 32 µg/mL | > 512 µg/mL | ≥8 | 64 µg/mL | > 512 µg/mL |  |  |  |
| CCCCn1c(=O)c(C(=O)NC2CCCCCCC2)c(O)c2nn(C)cc21 [Is, 4-(1-Butyl)-N-cyclooctyl-4,5-dihydro-7-hydroxy-2-methyl-5-oxo-2H-pyrazolo[4,3-b]pyridin-6-carboxamide] | 32 µg/mL | 32 µg/mL | 32 µg/mL | 512 µg/mL | ≥16 | 32 µg/mL | > 512 µg/mL | ≥16 | 32 µg/mL | > 512 µg/mL | ≥16 | 32 µg/mL | > 512 µg/mL |  |  |  |
| CC(C)n1c(=O)c(C(=O)NC2CCCc3ccccc32)c(O)c2nn(C)cc21 (stereo not shown) [Iaa, 4,5-Dihydro-7-hydroxy-2-methyl-5-oxo-4-(2-propyl)-N-(1,2,3,4-tetrahydro-1-naphthyl)-2H-pyrazolo[4,3-b]pyridin-6-carboxamide] | 64 µg/mL | 16 µg/mL | 32 µg/mL | 64 µg/mL | ≥32 | 16 µg/mL | > 512 µg/mL | ≥32 | 16 µg/mL | > 512 µg/mL | ≥16 | 32 µg/mL | > 512 µg/mL |  |  |  |
| CCCCn1c(=O)c(C(=O)NC2CCCC2)c(O)c2nn(C)cc21 [Iag, 4-(1-Butyl)-N-cyclopentyl-4,5-dihydro-7-hydroxy-2-methyl-5-oxo-2H-pyrazolo-[4,3-b]pyridin-6-carboxamide] |  |  |  |  | ≥16 | 32 µg/mL | > 512 µg/mL | ≥4 | 128 µg/mL | > 512 µg/mL | ≥8 | 64 µg/mL | > 512 µg/mL |  |  |  |
| CCCCn1c(=O)c(C(=O)NC(C)(C)C)c(O)c2nn(CC)cc21 [Iw, 4-(1-Butyl)-4,5-dihydro-N-(1,1-dimethylethyl)-2-ethyl-7-hydroxy-5-oxo-2H-pyrazolo[4,3-b]pyridin-6-carboxamide] |  |  |  |  | ≥32 | 16 µg/mL | > 512 µg/mL | ≥8 | 64 µg/mL | > 512 µg/mL | ≥16 | 32 µg/mL | > 512 µg/mL |  |  |  |
| CCCCn1c(=O)c(C(=O)NC23CC4CC(CC(O)(C4)C2)C3)c(O)c2nn(C)cc21 [Ia, 4-(1-Butyl)-4,5-dihydro-7-hydroxy-N-(1-hydroxyadamantan-3-yl)-2-methyl-5-oxo-2H-pyrazolo[4,3-b]pyridin-6-carboxamide] |  |  |  |  | ≥16 | 32 µg/mL |  | ≥16 | 32 µg/mL |  | ≥8 | 64 µg/mL |  | > 512 µg/mL | > 512 µg/mL | > 512 µg/mL |
